{"source": "paper PMC5433425", "about": "(PeerJ, 2017)", "key": {"[1]": {"assay": "Cytotoxicity, AlamarBlue method", "format": "cell-based, human", "conditions": "human, human monocyte-derived macrophages, three days of exposure, AlamarBlue", "description": "(§1) The blood was collected from healthy donors and the peripheral blood mononuclear cells were isolated by Ficoll-Paque Plus (GE Healthcare, Freiburg, Germany) density gradient centrifugation as previously described ([Machado et al., 2016]). […] Fresh medium was added at day 4 post isolation. The effect of the compounds on human monocyte-derived macrophages was evaluated using the AlamarBlue method (Molecular Probes, Life Technologies) ([O’Brien et al., 2000]), and by measuring the release of the lactate dehydrogenase (LDH) into the culture supernatants using the Pierce LDH Cytotoxicity Assay (ThermoFisher Scientific, Waltham, MA, USA) ([Chan, Moriwaki & Rosa, 2013]) according to the manufacturer’s instructions. Briefly, 5 × 10^4 cells were seeded in 96-well microplates treated with the compounds, and incubated at 37 °C with 5% CO2. After 72 h of treatment, the cell viability was assessed. For the AlamarBlue method, the dye was added to each well to a final concentration of 10% and incubated overnight at 37 °C and 5% CO2. The fluorescence was measured with a 540/35 excitation filter and a 590/20 emission filter in a Synergy HT multi-mode microplate reader. The release of LDH from damaged cells into culture supernatants, as an indicator of cytotoxicity, was measured in serum-free medium. Here the amount of enzyme activity correlates to the number of damaged cells. The specific lysis was calculated as follows: (treated cells—spontaneous LDH release)/ (maximum LDH release—spontaneous LDH release) ×100."}, "[2]": {"test_system": "human monocyte-derived macrophages", "assay": "Cytotoxicity, AlamarBlue method", "format": "cell-based", "conditions": "for AlamarBlue fluorescence 530/25,590/35 (raw well reading): 72 h, listed as PAN", "description": "as §1"}, "[3]": {"test_system": "human monocyte-derived macrophages", "assay": "Cytotoxicity, LDH release", "format": "cell-based", "conditions": "raw well reading, listed as PAN", "description": "as §1"}, "[4]": {"conditions": "concentration 10 (unit not given)"}, "[5]": {"conditions": "concentration 20 (unit not given)"}, "[6]": {"conditions": "concentration 40 (unit not given)"}, "[7]": {"conditions": "concentration 80 (unit not given)"}, "[8]": {"conditions": "concentration 160 (unit not given)"}, "[9]": {"conditions": "concentration 320 (unit not given)"}, "[10]": {"conditions": "concentration 640 (unit not given)"}, "[11]": {"conditions": "concentration 1280 (unit not given)"}, "[12]": {"conditions": "concentration 2560 (unit not given)"}}, "note": "“And” between values parts separate entries of the source, which are not always exact repeats. Identical values can stand only once. Peptide text beside a SMILES is read from it. * marks the point of attachment. βNA = c1ccc2cc(N*)ccc2c1"}
{"smiles": "N=C(N)NCCC[C@H](NC(=O)[C@@H](N)Cc1ccccc1)C(=O)Nc1ccc2ccccc2c1", "note": "[PAβN] (H-Phe-Arg-βNA)", "values": [{"measurement": "CC50 at 3 days", "setting": "[1]; read-out: CC50", "result": 1270, "unit": "µM"}, {"measurement": "CC90 at 3 days", "setting": "[1]; read-out: CC90", "result": 3600, "unit": "µM"}, {"measurement": "AlamarBlue fluorescence 530/25,590/35 (raw well reading)", "setting": "[2]; 10 uM", "result": "5144 and 4515 and 5435"}, {"measurement": "AlamarBlue fluorescence 530/25,590/35 (raw well reading)", "setting": "[2]; 20 uM", "result": "4321 and 4369 and 4263"}, {"measurement": "AlamarBlue fluorescence 530/25,590/35 (raw well reading)", "setting": "[2]; 40 uM", "result": "4438 and 4039 and 4264"}, {"measurement": "AlamarBlue fluorescence 530/25,590/35 (raw well reading)", "setting": "[2]; 80 uM", "result": "3781 and 3772 and 3994"}, {"measurement": "AlamarBlue fluorescence 530/25,590/35 (raw well reading)", "setting": "[2]; 160 uM", "result": "3584 and 4033 and 3977"}, {"measurement": "AlamarBlue fluorescence 530/25,590/35 (raw well reading)", "setting": "[2]; 320 uM", "result": "3356 and 3644 and 3382"}, {"measurement": "AlamarBlue fluorescence 530/25,590/35 (raw well reading)", "setting": "[2]; 640 uM", "result": "3650 and 3381 and 3133"}, {"measurement": "AlamarBlue fluorescence 530/25,590/35 (raw well reading)", "setting": "[2]; 1280 uM", "result": "2305 and 2619 and 2474"}, {"measurement": "CC10", "setting": "[2]; three days of exposure, AlamarBlue", "result": 447.71, "unit": "µM"}, {"measurement": "Pierce LDH absorbance 490", "setting": "[3]; [4]", "result": "0.218 and 0.187 and 0.203"}, {"measurement": "Pierce LDH absorbance 630", "setting": "[3]; [4]", "result": "0.102 and 0.108 and 0.118"}, {"measurement": "Pierce LDH absorbance 490", "setting": "[3]; [5]", "result": "0.185 and 0.182"}, {"measurement": "Pierce LDH absorbance 630", "setting": "[3]; [5]", "result": "0.094 and 0.098 and 0.113"}, {"measurement": "Pierce LDH absorbance 490", "setting": "[3]; [6]", "result": "0.213 and 0.202 and 0.198"}, {"measurement": "Pierce LDH absorbance 630", "setting": "[3]; [6]", "result": "0.106 and 0.115 and 0.108"}, {"measurement": "Pierce LDH absorbance 490", "setting": "[3]; [7]", "result": "0.221 and 0.196 and 0.201"}, {"measurement": "Pierce LDH absorbance 630", "setting": "[3]; [7]", "result": "0.11 and 0.102 and 0.112"}, {"measurement": "Pierce LDH absorbance 490", "setting": "[3]; [8]", "result": "0.25 and 0.23 and 0.207"}, {"measurement": "Pierce LDH absorbance 630", "setting": "[3]; [8]", "result": "0.098 and 0.096 and 0.105"}, {"measurement": "Pierce LDH absorbance 490", "setting": "[3]; [9]", "result": "0.226 and 0.222 and 0.196"}, {"measurement": "Pierce LDH absorbance 630", "setting": "[3]; [9]", "result": "0.099 and 0.109 and 0.1"}, {"measurement": "Pierce LDH absorbance 490", "setting": "[3]; [10]", "result": "0.201 and 0.208 and 0.215"}, {"measurement": "Pierce LDH absorbance 630", "setting": "[3]; [10]", "result": "0.096 and 0.11 and 0.112"}, {"measurement": "Pierce LDH absorbance 490", "setting": "[3]; [11]", "result": "0.434 and 0.517 and 0.508"}, {"measurement": "Pierce LDH absorbance 630", "setting": "[3]; [11]", "result": "0.175 and 0.213 and 0.218"}, {"measurement": "Pierce LDH absorbance 490", "setting": "[3]; [12]", "result": "0.612 and 0.538 and 0.513"}, {"measurement": "Pierce LDH absorbance 630", "setting": "[3]; [12]", "result": "0.334 and 0.228 and 0.206"}]}
